From paper PMC7013346, “Bioaccessibility and Pharmacokinetics of a Commercial Saffron (Crocus sativus L.) Extract” (Evidence-based Complementary and Alternative Medicine : eCAM, 2020)
Where two headings read alike, the source gives them in different places. Marks after values point to notes of the source that are not given here.

Assays:
[1] = Abiotic in vitro digestion (salivary, gastric, duodenal steps) of affron® tablets, HPLC-PAD/MS quantification; type: in vitro ADME; conditions: for Bioactive molecule content, initial sample: affron® before in vitro digestion; for Bioactive molecule content, initial sample / Bioactive molecule content, digested sample, duodenal / Bioactive molecule content, digested sample, gastric / Bioactive molecule content, digested sample, salivary: mean ± SD; for Bioactive molecule content, digested sample, duodenal: after duodenal step, 150 min, pH 7, 37°C, pancreatin and bile extract; for Bioactive molecule content, digested sample, gastric: after gastric step, 90 min, pH 2, 37°C, pepsin; for Bioactive molecule content, digested sample, salivary: after salivary step, 5 min, pH 6.9, 37°C, α-amylase; for Bioaccessibility: after whole in vitro digestion of affron® tablets, relative to initial content
Procedure: Briefly, the salivary step runs for 5 min at pH 6.9 and 37°C, under aerobic conditions with 3.9 units α-[…]. Then, the samples were transferred for 90 min to the gastric step at pH 2 and 37°C with 71.2 units pepsin/ml under anaerobic conditions. Finally, the duodenal step was set for 150 min at pH 7 and 37°C, with 9.2 mg pancreatin/ml and 55.2 mg bile extract/ml under anaerobic conditions. Samples were taken from every steps and were centrifuged at 7000 g for 40 min at 4°C. […] All samples were analysed at least in duplicate. High-performance liquid chromatography (HPLC) analysis of bioactive components from initial and digested saffron extract was performed using an Agilent Technologies 1220 Infinity series system equipped with a photodiode array detector (PAD) according to Kell et al., while the analysis of crocetin was according to Umigai et al.. […] To estimate the percentage of bioaccessibility of the main bioactive compounds of affron®, an equation was used according to Ordoudi et al.

[2] = Single-dose pharmacokinetics of crocetin in plasma after oral affron® tablets in healthy volunteers; type: in vivo, human; conditions: for Detection in plasma after affron® intake: human plasma, 0.5-3 h and 24 h after 56 or 84 mg affron®, HPLC
Procedure: A single dose, randomized, double blinded study was used to evaluate the pharmacokinetics of two different saffron doses (56 mg and 84 mg). The randomization code was generated by Random Allocation Software, sealed envelope (London, UK). Enrolled participants were then allocated to one of two groups: group 1: consumed 4 × 14 mg of affron® tablets (56 mg single dose); group: 2 : 6 × 14 mg of affron® tablets (84 mg single dose).
The subjects of the pharmacokinetics were adult male (n = 5) and female (n = 8; nonpregnant and nonlactating) healthy volunteers of 18–30 years age. All participants self-reported to be in normal physical health (BMI < 30) and passed the exclusion screening. Exclusion criteria included suffering clinically significant medical condition, such as, but not limited to, cardiovascular, neurological, psychiatric, renal, immunological, endocrine (including uncontrolled diabetes or thyroid disease), or uncontrolled haematological abnormalities. Other exclusion criteria were the use within the past 3 months of the tested compounds and/or antioxidants; no current use of prescription medications except the oral contraceptive pill in women; and known allergy to any tested compound and/or antioxidant.
All participants were advised to fast from 10 : 00 pm prior to the study until the collection of the first blood sample. Fasting was broken immediately after dosing the corresponding tablets. At time 0 h and at 4 h after dosing, balanced breakfasts (410 kcal, approximately 30% of them from fats) and lunches (625 kcal, approximately 30% from fats) were served at the center. The meals were poor in carotenoids. Subjects remained onsite for the full first 6 hours of sample collection and returned to the center again for the 24 h samples. Subjects were monitored and asked to report any possible side-effects experienced due to intake of the tablets during the whole 24 h time after the intake of the tablets.
For crocetin pharmacokinetic analysis, blood samples (3 ml collected into tubes with EDTA) were drawn prior to affron® supplementation (time 0 h), between time 30 and 180 min at every 30 min and 24 h after supplementation. The blood tubes were briefly mixed by inversion and put on ice and centrifuged (600 g, 4°C for 10 min) to separate the plasma. The EDTA-plasma of every sample was carefully removed in 3 aliquots (500 μl each) and stored at −20°C for less than 48 h before being finally transported and stored at −80°C.
Plasma samples were extracted based on the method described and validated by Mohammadpour et al.. Briefly, plasma samples were thawed to room temperature. Then, 20 μl of an internal standard solution of 13-cis-retinoic acid and 120 μl acetonitrile were added to 100 μl of sample. The samples tubes were capped and vortexed for 10 s and put on ice for 5 min. The samples were then gently rotated for 10 minutes before centrifuging at 12000 g for 10 min. The supernatant was collected and analysed by HPLC.
The efficiency of the extraction process was estimated by the measure of the residual amount of the internal standard, and 13-cis-retinoic acid was recovered after the analysis. The recovery percentage was then applied to the results to calculate the true concentration of crocetin in the samples.
The chromatogram of a sample of pure standard crocetin and its typical absorption wavelength were used to identify and confirm the crocetin peak in every analysis, as shown in Mohammadpour et al..
The crocetin concentration in biological samples was calculated using a standard linear curve at several crocetin concentration and the Shimadzu software for chromatogram analysis. All samples fell within the range of the linear standard curve (concentration (μg/ml) = (AUC + 131.56)/9475). The intra-assay precision CV was 4.8%, and the interassay variability and precision CV were 7.3%, with a blood detection limit of 0.05 μg/ml.
Pharmacokinetic parameters were derived using GraphPad Prism 7.0 (California, USA). […]

[3] = design: method as in PMID 21112749; conditions: human, single oral dose of 22.5 mg of crocetin from G. jasminoides; cited from earlier work
[4] = design: method as in PMID 23638292; conditions: human, single oral dose of 16 mg of saffron crocetins; cited from earlier work

CC(/C=C/C=C(\C)C(=O)O[C@@H]1O[C@H](CO[C@@H]2O[C@H](CO)[C@@H](O)[C@H](O)[C@H]2O)[C@@H](O)[C@H](O)[C@H]1O)=C\C=C\C=C(C)\C=C\C=C(/C)C(=O)O[C@@H]1O[C@H](CO[C@@H]2O[C@H](CO)[C@@H](O)[C@H](O)[C@H]2O)[C@@H](O)[C@H](O)[C@H]1O (relative stereo) [t-crocin-4, trans-crocin-4]
Reduction of content during gastric digestion ([1]; acid-pepsin environment, gastric step): 84%
Bioactive molecule content, initial sample [1]: 1.66 ± 0.04^b %, dry basis
Bioactive molecule content, digested sample, duodenal [1]: 0.20 ± 0.04^a %, dry basis
Bioactive molecule content, digested sample, gastric [1]: 0.26 ± 0.03^a %, dry basis
Bioactive molecule content, digested sample, salivary [1]: 1.11 ± 0.43^b %, dry basis
Bioaccessibility [1]: 12.05%

CC(/C=C/C=C(\C)C(=O)O)=C\C=C\C=C(C)\C=C\C=C(/C)C(=O)O [Crocetin]
Bioactive molecule content, initial sample [1]: 0.03 ± 0.01^a %, dry basis
Bioactive molecule content, digested sample, duodenal [1]: 0.02 ± 0.01^a %, dry basis
Bioactive molecule content, digested sample, gastric [1]: 0.03 ± 0.01^a %, dry basis
Bioactive molecule content, digested sample, salivary [1]: 0.02 ± 0.01^a %, dry basis
Bioaccessibility [1]: 66.67%
Change of concentration over the whole in vitro digestion process vs initial composition ([1]; salivary, stomach and duodenal steps): did not increase
half-life ([2]; both sexes, plasma, crocetin after oral affron® tablets, human, dose not separated, read-out: Plasmatic half-life (converted)): 51 ± 2.4 min
Clearance ([2]; crocetin after oral affron® tablets, human, dose not separated): 2.70 ± 0.14 L/h
Time after administration at which plasma crocetin fell to the HPLC-PAD quantification limit / ceased to be detected ([2]; human, 56 or 84 mg affron®): 3 h
Crocetin concentration in plasma 24 h after affron® intake ([2]; human, 24 h, detection limit 0.05 μg/ml): below the detection limit
Cmax [3]: 280 ng/mL
Cmax [4]: 350 ng/mL

CC1=C(C=O)C(C)(C)CC(O[C@@H]2O[C@H](CO)[C@@H](O)[C@H](O)[C@H]2O)C1 (stereo partly drawn) [Picrocrocin, 4-(β-D-glucopyranosyloxy)-2,6,6-trimethyl-1-cyclohexene-1-carboxaldehyde]
Bioactive molecule content, initial sample [1]: 3.21 ± 0.07^c %, dry basis
Bioactive molecule content, digested sample, duodenal [1]: 2.61 ± 0.05^b %, dry basis
Bioactive molecule content, digested sample, gastric [1]: 2.07 ± 0.02^a %, dry basis
Bioactive molecule content, digested sample, salivary [1]: 3.14 ± 0.11^c %, dry basis
Bioaccessibility [1]: 81.31%
Decrease of content after the digestion process ([1]; whole in vitro digestion vs initial conditions): 19%
Detection in plasma after affron® intake [2]: absent
Detection in plasma after affron® intake ([2]; listed as picrocrocin): not detected

CC1=C(C=O)C(C)(C)CC=C1 [Safranal]
Bioactive molecule content, initial sample [1]: 0.04 ± 0.01^a %, dry basis
Bioactive molecule content, initial sample ([1]; listed as safranal): 0.04 %, dry basis
Bioactive molecule content, digested sample, duodenal [1]: 0.08 ± 0.01^b %, dry basis
Bioactive molecule content, digested sample, duodenal ([1]; listed as safranal): 0.08 %, dry basis
Bioactive molecule content, digested sample, gastric [1]: 0.21 ± 0.01^c %, dry basis
Bioactive molecule content, digested sample, salivary [1]: 0.03 ± 0.00^a %, dry basis
Bioaccessibility [1]: 200.00%
Increase of content after the digestion process vs initial concentration ([1]; whole in vitro digestion): about 2 folds
Detection in plasma after affron® intake [2]: not detected or appeared below the detection limit
Detection in plasma after affron® intake ([2]; listed as safranal): not detected

Kaempferol diglucoside
Bioactive molecule content, initial sample [1]: 0.13 ± 0.01^b,c %, dry basis
Bioactive molecule content, digested sample, duodenal [1]: 0.09 ± 0.01^a %, dry basis
Bioactive molecule content, digested sample, gastric [1]: 0.12 ± 0.01^b %, dry basis
Bioactive molecule content, digested sample, salivary [1]: 0.14 ± 0.01^c %, dry basis
Bioaccessibility [1]: 69.23%
